{"source": "patent US20080249123A1", "about": "“WORTMANNIN-RAPAMYCIN CONJUGATE AND USES THEREOF” (Wyeth, priority 2007, published 2008)", "key": {"LNCap": {"system": "LNCap", "assay": "In vitro cell culture growth assay (MTS), LNCap", "format": "cell-based, Human", "conditions": "prostate line, 3 days after drug treatment", "protocol": "(§1) Human tumor cell lines (Table 3) include prostate lines LNCap and PC3MM2, breast lines MDA468, MCF7, renal line HTB44 (A498), colon line HCT116, and ovarian line OVCAR3. Cells were plated in 96-well culture plates.\n(§2) One day following plating, the following conjugates (inhibitors) were added to cells: • Compound A 42,17′-linked wortmannin-adipate-rapamycin conjugate, diethylamine adduct • Compound B 42,17′-linked wortmannin-adipate-rapamycin conjugate. • Compound C 42,17′-linked wortmannin-succinate-rapamycin conjugate, N,N,N′-trimethyl 1,3-propanediamine adduct • Compound D 42,17′-linked wortmannin-adipate-rapamycin conjugate, diallylamine adduct • Compound E 42,17′-linked wortmannin-adipate-rapamycin conjugate, N,N,N′-trimethyl 1,3-propanediamine adduct • Compound F 42,17′-linked wortmannin-suberate-rapamycin conjugate, N,N,N′-trimethyl 1,3-propanediamine adduct.\n(§3) Three days after drug treatment, viable cell densities were determined by metabolic conversion (by viable cells) of the MTS dye (3-(4,5-dimethylthiazol-2-yl)-5-(3 carboxymethoxyphenyl)-2-(4-sulfophenyl)-2H-tetrazolium, inner salt), a well established cell proliferation assay. The assays were performed using an assay kit purchased from Promega Corp. (Madison, Wis.) following the protocol supplied with the kit. The MTS assay results were read in a 96-well plate reader by measuring absorbance at 490 nm. The effect of each treatment was calculated as percent of control growth relative to the vehicle-treated cells grown in the same culture plate. The drug concentration that conferred 50% inhibition of growth was determined as IC50 (μg/mL). See, Table 3."}, "PC3MM2": {"system": "PC3MM2", "assay": "In vitro cell culture growth assay (MTS), PC3MM2", "format": "cell-based, Human", "conditions": "prostate line, 3 days after drug treatment", "protocol": "as §1, §2, §3"}, "MDA468": {"system": "MDA468", "assay": "In vitro cell culture growth assay (MTS), MDA468", "format": "cell-based, Human", "conditions": "breast line, 3 days after drug treatment", "protocol": "as §1, §2, §3"}, "MCF7": {"system": "MCF7", "assay": "In vitro cell culture growth assay (MTS), MCF7", "format": "cell-based, Human", "conditions": "breast line, 3 days after drug treatment", "protocol": "as §1, §2, §3"}, "HTB44 (A498)": {"system": "HTB44 (A498)", "assay": "In vitro cell culture growth assay (MTS), HTB44 (A498)", "format": "cell-based, Human", "conditions": "renal line, 3 days after drug treatment", "protocol": "as §1, §2, §3"}, "HCT116": {"system": "HCT116", "assay": "In vitro cell culture growth assay (MTS), HCT116", "format": "cell-based, Human", "conditions": "colon line, 3 days after drug treatment", "protocol": "as §1, §2, §3"}, "OVCAR3": {"system": "OVCAR3", "assay": "In vitro cell culture growth assay (MTS), OVCAR3", "format": "cell-based, Human", "conditions": "ovarian line, 3 days after drug treatment", "protocol": "as §1, §2, §3"}, "U87MG Glioma Xenografts": {"system": "U87MG Glioma Xenografts", "assay": "Xenograft tumor efficacy study, U87MG glioma in nude mice", "format": "in vivo", "protocol": "Female nude mice at 10 weeks of age were inoculated subcutaneously on the flank with 200 μL U87MG (human gliobastoma) tumor cell suspension. U87MG cells were suspended in full growth media and were implanted at 10 million cells per mouse. Mice were staged when tumors reached approximately 200 mm^3 in sizes. Tumor bearing mice at staging (day 0) were randomized into treatment groups (n=10). […]\nThe growth of tumors was monitored twice a week for the duration of the experiment. Tumor size was measured using sliding vernier calipers, and the tumor mass was calculated using the formula (length×Width^2)/2.\nThe experimental methods for drug preparation, dosing route, regimen, etc (listed in the Table 4) were similar to the experiments presented in the Figures. The data in Table 4 and the Figures were derived from multiple and completely different experiments. Within Table 4, the data contained separate experiments."}, "[1]": {"system": "HT29 colon tumor xenograph", "format": "in vivo", "conditions": "1× weekly for four rounds", "protocol": "The effect of 42,17′-linked wortmannin-suberate-rapamycin conjugate, N,N,N′-trimethyl 1,3-propanediamine adduct, prepared as described in Example 4 was studied in a model of human colon cancer.\nThe 42,17′-linked wortmannin-suberate-rapamycin conjugate, N,N,N′-trimethyl 1,3-propanediamine adduct (▪, 15 mg/kg), rapamycin (▴, 10 mg/kg), 17-hydroxywortmannin N,N,N′-trimethyl 1,3-propanediamine adduct (▾, 5 mg/kg) and a physical combination of rapamycin (10 mg/kg) and 17-hydroxywortmannin N,N,N′-trimethyl 1,3-propanediamine adduct (5 mg/kg) were dosed 1× weekly for four rounds against a HT29 colon tumor xenograph. Vehicle served as a negative control ([…])."}, "[2]": {"system": "A498 renal cell carcinoma xenograph", "assay": "In vivo anticancer efficacy in HTB44/A498 renal cell carcinoma model", "conditions": "conjugate i.v. 1× weekly 15 mg/kg, 2 rounds; Intron A ip 3× weekly 0.5 mU, 2 weeks", "protocol": "This study utilized a model of renal cancer performed as previously described. See, e.g., Yu K, et al., PWT-458, A Novel Pegylated-17-Hydroxywortmannin, Inhibits Phosphatidylinositol 3-Kinase Signaling and Suppresses Growth of Solid Tumors. Cancer Biol Ther. May 28, 2005; 4(5).\nOn day 23 the Vehicle group ([…]) was redosed with a combination 42,17′-linked wortmannin-suberate-rapamycin N,N,N′-trimethyl 1,3-propanediamine adduct (30 mg/kg) and the Avastin® drug (200 μg) for five rounds. On day 43, the 42,17′-linked wortmannin-suberate-rapamycin conjugate, N,N,N′-trimethyl 1,3-propanediamine adduct group (30 mg/kg) and the Avastin® drug group (200 μg) were redosed with a combination of 42,17′-linked wortmannin-suberate-rapamycin conjugate, N,N,N′-trimethyl 1,3-propanediamine adduct and the Avasting drug for three rounds."}}}
{"substance": "42,17′-linked wortmannin-suberate-rapamycin conjugate, N,N,N′-trimethyl 1,3-propanediamine adduct [Compound F]", "values": [{"measurement": "IC50 inhibition of tumor cell growth, LNCap", "setting": "LNCap", "result": 0.06, "unit": "µg/mL"}, {"measurement": "IC50 inhibition of tumor cell growth, PC2MM2", "setting": "PC3MM2", "result": 1.00, "unit": "µg/mL"}, {"measurement": "IC50 inhibition of tumor cell growth, MDA468", "setting": "MDA468", "result": 0.50, "unit": "µg/mL"}, {"measurement": "IC50 inhibition of tumor cell growth, MCF7", "setting": "MCF7", "result": 0.24, "unit": "µg/mL"}, {"measurement": "IC50 inhibition of tumor cell growth, HTB44", "setting": "HTB44 (A498)", "result": 2.10, "unit": "µg/mL"}, {"measurement": "IC50 inhibition of tumor cell growth, HCT116", "setting": "HCT116", "result": 12.75, "unit": "µg/mL"}, {"measurement": "IC50 inhibition of tumor cell growth, OVCAR3", "setting": "OVCAR3", "result": 6.48, "unit": "µg/mL"}, {"measurement": "antitumor efficacy versus physical combination (FIG. 3)", "setting": "U87MG Glioma Xenografts; 15 mg/kg, 1× weekly for 2 rounds", "result": "at least as active as the physical combination"}, {"measurement": "efficacy after a single dose (FIG. 4)", "setting": "U87MG Glioma Xenografts; single dose 30, 45 and 60 mg/kg", "result": "effective in the intermittent regimen"}, {"measurement": "tolerability (FIG. 5)", "setting": "[1]; 15 mg/kg, in contrast to physical combination", "result": "better tolerated"}, {"measurement": "tumor reduction (FIG. 5)", "setting": "[1]; conjugate 15 mg/kg, combination rapamycin 10 mg/kg + 17-hydroxywortmannin adduct 5 mg/kg", "result": "significant tumor reduction"}, {"measurement": "antitumor activity (FIG. 6)", "setting": "[2]", "result": "increased antitumor activity as compared to vehicle and Intron® A reagent alone"}]}
